We go through 5 molecules from patent US20060281807A1, “Quassinoid compositions for the treatment of cancer and other proliferative diseases” (Tapestry Pharmaceuticals, Inc., priority 2005, published 2006).

For one assay, the system named is SK-N-AS. Kind of assay: MTT cytotoxicity assay (% kill), SK-N-AS. In kind it is cell-based, human. The following applies: 1.0 μg/mL, MTT after five days. The method, then: (§1) The following human tumor cell lines were obtained and cultured in sextuplicate microwells at 37° C. and 5% CO2 in humidified air and in 10% FBS in Eagles MEM: SK—N—FI, SK—N-AS, LS-174T, WiDr, HuTu-80, MCF7, NCI-AR, MES-Sar, and PL-45. Cells from each cell line were separately treated with an amount of one of the compounds of Formula I, II, or III (see Table 1). Cells were exposed to each compound (0.1 μg/mL or 1.0 μg/mL) for one hour or 24 hours, rinsed with drug-free media, and incubated for an additional five days. The number of viable cells after five days was measured using an MTT (3-(4,5-dimethylthiazol-2-yl)-2,5-diphenyltetrazolium bromide) assay (see, e.g., Mosmann, J. Immunol. Methods, 65(1-2), 55-63 (1983)).
(§2) The cytotoxicity of each drug was determined and expressed as the percent of cells killed (“% kill”).

The next assay has as its system LS-174T. Kind of assay: MTT cytotoxicity assay (% kill), LS-174T. In kind it is cell-based, human. The following applies: 1.0 μg/mL, MTT after five days. The method, then: as §1, §2
The subject of assay [1] is Colon 38 (murine colon adenocarcinoma). Nature of the assay: Disk diffusion assay, zone of inhibition, Colon 38; zone differentials, potency and product. Details: key to C38ΔL1210 / C38ΔCFU: difference of zone of inhibition values, in zone units. The class given is cell-based. The following applies: for Sum: C38ΔL1210 plus C38ΔCFU; for C38ΔL1210 / C38ΔCFU: difference between zone of inhibition values; for C38ΔL1210: Colon38 vs L1210 leukemia; for C38ΔCFU: Colon38 vs normal cell CFU-GM; for Product: potency multiplied by zone differentials. The method, then: A disk diffusion assay was performed to define the differential cell killing ability of 15-O-(3′-hydroxy-3′-isopropyl-4′-methylpentanoyl)bruceolide. Seven cell types were assayed: L1210 (ATCC CCL-219) (murine leukemia), CCRF-CEM (ATCC CCL-119) (human leukemia), Colon 38 (murine colon adenocarcinoma), HCT116 (ATCC CCL-247) (human colorectal carcinoma), H125 (human lung carcinoma). The murine and human granulocyte/macrophage progenitor cell line (CFU-GM), served as controls.
Colon 38 cells (about 1 gram) were cut into small fragments in 15 mL of Hank's Balanced Salt Solution (HBSS) over a 100-mesh sieve and gently forced through by the scissors with HBSS constantly perfusing the sieve. The resulting material was then drawn into and out of a 5 mL syringe without a needle to further disperse the cell clumps. The cell solution was diluted and plated in 0.3% agarose in DMEM plus 10% heat-inactivated Bovine Calf Serum (BCS). For plating of all of the cell types (except controls), the 60 mm plates were first prepared with a hard agar bottom layer (0.6% agar in RPMI-1640 plus 15% BCS).
A 15 μl sample of each compound was dropped onto a 6.5 mm disk (Baxter filter disks). The disks were allowed to dry overnight and then placed close to the edge of a petri dish. Depending upon the cell type, the dishes were incubated for 7 to 10 days, and examined by an inverted stereo-microscope (10×) for measurement of the zone of inhibition. The zone of inhibition was measured from the edge of the filter disk to the beginning of normal-sized colony formation. The diameter of the filter disk, 6.5 mm, was arbitrarily taken as a zone of 200 units. Compounds that were selective for killing solid tumors, as compared to leukemia or normal cells (“solid tumor selective”) were defined as those compounds which produced a difference in zones between solid tumor cells and either normal or leukemia cells of at least 250 units. The results of this analysis are set forth in Table 4, which illustrates the relative diameters of the zones of inhibition by various drugs on the growth of the respective cell types at various drug dilutions.
The degree of differential sensitivity of several inventive compounds was compared with respect to the Colon38 cell line, the L1210 cell line, and the control CFU-GM cell lines. The degree of differential sensitivity was estimated by calculating the difference between the zone of inhibition values, as determined in Example 6, for the solid tumor compared to either the leukemia (C38ΔL1210) or normal cell (C38ΔCFU).
The potency of each of several inventive compounds was determined by identifying the dilution required to yield an average zone of inhibition of 500 units for the Colon38 cell type. Then the potency and the zone differentials were multiplied to define a “product” (see Table 5), which can be used to rank the compounds tested for their potential for further development; the greater the product value the greater the probability of useful chemotherapeutic utility.

Setting [2] is: listed as 15-O-(allyloxycarbonyl) bruceolide.

Molecules are shown by their SMILES.

`COC(=O)C12OCC34C(CC5C(C)=C(O)C(=O)CC5(C)C3C(O)C1O)OC(=O)C(OC(=O)CC1(O)CCCCC1)C24` (centres unmarked) [15-O-[(1′-hydroxycyclohexyl)-acetyl]-bruceolide]: the “% Kill, SK-N-AS” value in the assay on SK-N-AS (1 h exposure) came to 16%. Moreover, in the assay on SK-N-AS (24 h exposure), the “% Kill, SK-N-AS” value came out at 80%. In the assay with LS-174T (1 h exposure), the “% Kill, LS-174T” value is reported as 23%. Moreover, in the assay with LS-174T (24 h exposure), the “% Kill, LS-174T” value is listed as 62%. In assay [1], the Sum is 750, the C38ΔL1210 was 300, the C38ΔCFU was 450 and the Product turned out to be 3000.
With `COC(=O)[C@@]12OC[C@]34[C@H]([C@@H](O)[C@@H]1O)[C@@]1(C)CC(=O)C(O)=C(C)[C@@H]1C[C@H]3OC(=O)[C@H](OC(=O)C1=CCCCC1)[C@@H]24` [15-O-(1′-cyclohexenoyl)-bruceolide], the “% Kill, SK-N-AS” value with SK-N-AS (1 h exposure) is given as 0%. Moreover, in the assay with SK-N-AS (24 h exposure), the “% Kill, SK-N-AS” value is on record as 5%. Moreover, the “% Kill, LS-174T” value with LS-174T (1 h exposure) is 12%. Moreover, the “% Kill, LS-174T” value in the assay with LS-174T (24 h exposure) is 35%. In addition, in assay [1], the Sum was 550, the C38ΔL1210 is 200, the C38ΔCFU is recorded as 350 and the Product was 550.
On to `COC(=O)C12OCC34C(CC5C(C)=C(O)C(=O)CC5(C)C3C(O)C1O)OC(=O)C(OC(=O)c1cc(C)oc1C)C24` (centres unmarked) [15-O-(2′,5′-dimethyl-3′-furoyl)-bruceolide], for which the “% Kill, SK-N-AS” value in the assay on SK-N-AS (1 h exposure) was 0%. In the assay on SK-N-AS (24 h exposure), the “% Kill, SK-N-AS” value is recorded as 34%. In addition, the “% Kill, LS-174T” value with LS-174T (1 h exposure) is recorded as 12%. In the assay on LS-174T (24 h exposure), the “% Kill, LS-174T” value is 53%. In addition, in assay [1], the Sum is reported as 1050, the C38ΔL1210 came to 500, the C38ΔCFU is given as 550 and the Product amounted to 4200.
For the molecule `C=CCOC(=O)O[C@H]1C(=O)O[C@@H]2C[C@H]3C(C)=C(O)C(=O)C[C@]3(C)[C@H]3[C@@H](O)[C@H](O)[C@@]4(C(=O)OC)OC[C@]32[C@@H]14` [15-O-(allyloxycarbonyl)-bruceolide], the “% Kill, SK-N-AS” value in the assay with SK-N-AS (1 h exposure) is given as 1%. Moreover, the “% Kill, SK-N-AS” value in the assay on SK-N-AS (24 h exposure) came out at 43%. Moreover, in the assay on LS-174T (1 h exposure), the “% Kill, LS-174T” value came to 1%. Further, in the assay on LS-174T (24 h exposure), the “% Kill, LS-174T” value worked out at 43%. In addition, in assay [1], the Sum is 1050, the C38ΔL1210 turned out to be 500, the C38ΔCFU is 550 and the Product is recorded as 4100. In addition, in assay [1] (setting [2]), the Sum turned out to be 600, the C38ΔL1210 is given as 350, the C38ΔCFU came out at 250 and the Product is 3600.
With `CCCCCC(=O)OC1C(=O)OC2CC3C(C)=C(O)C(=O)CC3(C)C3C(O)C(O)C4(C(=O)OC)OCC23C14` (centres unmarked) [15-O-hexanoylbruceolide], in the assay on SK-N-AS (1 h exposure), the “% Kill, SK-N-AS” value stood at 0%. In the assay on SK-N-AS (24 h exposure), the “% Kill, SK-N-AS” value was 41%. The “% Kill, LS-174T” value with LS-174T (1 h exposure) turned out to be 19%. For the same molecule, the “% Kill, LS-174T” value with LS-174T (24 h exposure) came out at 57%. Further, in assay [1], the Sum came to 600, the C38ΔL1210 is recorded as 400, the C38ΔCFU stood at 200 and the Product came out at 600.
